# Test results taken from patent US20260242391A1 (priority 2023, published 2026).
# Legend:
# [1] = in vitro; conditions: human
# [2] = tested on: HL-60; experiment: HL-60 differentiation potency; format: cell-based; conditions: Homo sapiens
IC50 [1],EC50 [2],Structure (SMILES),IC50 ([1]; HL-60 cells)
> 20000 nM,> 20000 nM,"C[C@H]1[C@H](OCC(=O)N2CCC(C(=O)O)CC2)O[C@@H]2O[C@@]3(C)CC[C@H]4[C@H](C)CC[C@@H]1[C@@]24OO3 [Compound 164, 1-(2-(((3R,5aS,6R,8aS, 9R,10R,12R, 12aR)-3,6,9-trimethyldeca-hydro-12H-3,12-epoxy[1,2]dioxepino[4,3-i]isochromen-10-yl)oxy)acetyl) piperidine-4-carboxylic acid]",–
> 20000 nM,5750 nM,"C[C@H]1[C@H](OCC(=O)N2C[C@H]3[C@@H]([C@H]2C(=O)O)C3(C)C)O[C@@H]2O[C@@]3(C)CC[C@H]4[C@H](C)CC[C@@H]1[C@@]24OO3 [Compound 162, (1R,2S,5S)-6,6-dimethyl-3-(2-(((3R,5aS,6R,8aS, 9R,10R,12R, 12aR)-3,6,9-trimethyldeca-hydro-12H-3,12-epoxy[1,2]dioxepino[4,3-i]isochromen-10-yl)oxy)acetyl)-3-azabicyclo[3.1.0] hexane-2-carboxylic acid]",–
> 20000 nM,197 nM,"C[C@H]1[C@@H](OC[C@H]2CC[C@@H](C(=O)O)C2)O[C@@H]2O[C@@]3(C)CC[C@H]4[C@H](C)CC[C@@H]1[C@@]24OO3 [Compound 136, (1R,3S)-3-((((3R,5aS,6R, 8aS,9R,10S,12R, 12aR)-3,6,9-trimethyldeca-hydro-12H-3,12-epoxy[1,2]dioxepino[4,3-i]isochromen-10-yl)oxy)methyl) cyclopentane-1-carboxylic acid]",–
> 20000 nM,225 nM,"C[C@H]1[C@@H](OC[C@H]2CCC[C@@H](C(=O)O)C2)O[C@@H]2O[C@@]3(C)CC[C@H]4[C@H](C)CC[C@@H]1[C@@]24OO3 [Compound 135, (1R,3S)-3-((((3R,5aS,6R, 8aS,9R,10S,12R, 12aR)-3,6,9-trimethyldeca-hydro-12H-3,12-epoxy[1,2]dioxepino[4,3-i]isochromen-10-yl)oxy)methyl) cyclohexane-1-carboxylic acid]",–
> 20000 nM,782 nM,"C[C@H]1[C@H](OCC2CCC(C(=O)O)CC2)O[C@@H]2O[C@@]3(C)CC[C@H]4[C@H](C)CC[C@@H]1[C@@]24OO3 (stereo partly drawn) [Compound 42, (1S,4s)-4-((((3R,5aS,6R, 8aS,9R,10R,12R, 12aR)-3,6,9-trimethyldeca-hydro-12H-3,12-epoxy[1,2]dioxepino[4,3-i]isochromen-10-yl)oxy)methyl) cyclohexane-1-carboxylic acid]",–
> 20000 nM,> 20000 nM,"C[C@H]1[C@H](N2CCC(C(=O)O)CC2)O[C@@H]2O[C@@]3(C)CC[C@H]4[C@H](C)CC[C@@H]1[C@@]24OO3 [Compound 64, 1-((3R,5aS,6R,8aS, 9R,10R,12R, 12aR)-3,6,9-trimethyldeca-hydro-12H-3,12-epoxy[1,2]dioxepino[4,3-i]isochromen-10-yl)piperidine-4-carboxylic acid]",–
> 20000 nM,87.4 nM,"C[C@H]1[C@@H](OC[C@H]2CC[C@@H](C(=O)O)CC2)O[C@@H]2O[C@@]3(C)CC[C@H]4[C@H](C)CC[C@@H]1[C@@]24OO3 [Compound 11, (1R,4s)-4-((((3R,5aS,6R,8aS, 9R,10S,12R, 12aR)-3,6,9-trimethyldeca-hydro-12H-3,12-epoxy[1,2]dioxepino[4,3-i]isochromen-10-yl)oxy)methyl) cyclohexane-1-carboxylic acid]",–
2080 nM,2340 nM,"CNS(=O)(=O)CCN[C@@H]1O[C@@H]2O[C@@]3(C)CC[C@H]4[C@H](C)CC[C@@H]([C@H]1C)[C@@]24OO3 [Compound 97, N-methyl-2-(((3R,5aS,6R,8aS, 9R,10R,12R, 12aR)-3,6,9-trimethyldeca-hydro-12H-3,12-epoxy[1,2]dioxepino[4,3-i]isochromen-10-yl)amino)ethane-1-sulfonamide]",–
> 20000 nM,57.7 nM,"Cc1cc(CC(=O)O)ccc1O[C@H]1O[C@@H]2O[C@@]3(C)CC[C@H]4[C@H](C)CC[C@@H]([C@H]1C)[C@@]24OO3 [Compound 8, 2-(3-methyl-4-(((3R,5aS,6R,8aS, 9R,10S,12R, 12aR)-3,6,9-trimethyldeca-hydro-12H-3,12-epoxy[1,2]dioxepino[4,3-i]isochromen-10-yl)oxy)phenyl) acetic acid]",–
3520 nM,300 nM,"C[C@H]1[C@@H](OCc2ccc(C(N)=O)cc2)O[C@@H]2O[C@@]3(C)CC[C@H]4[C@H](C)CC[C@@H]1[C@@]24OO3 [Compound 30, 4-((((3R,5aS, 6R,8aS,9R,10S, 12R,12aR)-3,6,9-trimethyldeca-hydro-12H-3,12-epoxy[1,2]dioxepino[4,3-i]isochromen-10-yl)oxy)methyl) benzamide]",–
> 20000 nM,> 20000 nM,"CNC(=O)N1CCN([C@@H]2O[C@@H]3O[C@@]4(C)CC[C@H]5[C@H](C)CC[C@@H]([C@H]2C)[C@@]35OO4)CC1 [Compound 67, N-methyl-4-((3R,5aS,6R,8aS, 9R,10R,12R, 12aR)-3,6,9-trimethyldeca-hydro-12H-3,12-epoxy[1,2]dioxepino[4,3-i]isochromen-10-yl)piperazine-1-carboxamide]",–
> 20000 nM,7400 nM,"C[C@H]1[C@@H](OCC23CC(C(=O)O)(C2)C3)O[C@@H]2O[C@@]3(C)CC[C@H]4[C@H](C)CC[C@@H]1[C@@]24OO3 [Compound 55, 3-((((3R,5aS,6R,8aS, 9R,10S,12R, 12aR)-3,6,9-trimethyldeca-hydro-12H-3,12-epoxy[1,2]dioxepino[4,3-i]isochromen-10-yl)oxy)methyl) bicyclo[1.1.1] pentane-1-carboxylic acid]",–
≥ 20000 nM,2100 nM,"C[C@H]1[C@H](OCc2ccc(S(N)(=O)=O)cc2)O[C@@H]2O[C@@]3(C)CC[C@H]4[C@H](C)CC[C@@H]1[C@@]24OO3 [Compound 49, 4-((((3R,5aS,6R,8aS, 9R,10R,12R, 12aR)-3,6,9-trimethyldeca-hydro-12H-3,12-epoxy[1,2]dioxepino[4,3-i]isochromen-10-yl)oxy)methyl) benzene-sulfonamide]",–
> 20000 nM,> 20000 nM,"C[C@H]1[C@H](N(C)Cc2ccc(C(=O)O)cc2)O[C@@H]2O[C@@]3(C)CC[C@H]4[C@H](C)CC[C@@H]1[C@@]24OO3 [Compound 102, 4-((methyl((3R, 5aS,6R,8aS,9R, 10R,12R,12aR)-3,6,9-trimethyldeca-hydro-12H-3,12-epoxy[1,2]dioxepino[4,3-i]isochromen-10-yl)amino)methyl) benzoic acid]",–
> 20000 nM,273 nM,"C[C@H]1[C@@H](OCC(C(=O)O)c2ccccc2)O[C@@H]2O[C@@]3(C)CC[C@H]4[C@H](C)CC[C@@H]1[C@@]24OO3 (stereo partly drawn) [Compound 172, 2-phenyl-3-(((3R,5aS,6R,8aS, 9R,10S,12R, 12aR)-3,6,9-trimethyldeca-hydro-12H-3,12-epoxy[1,2]dioxepino[4,3-i]isochromen-10-yl)oxy) propanic acid]",–
10500 nM,3380 nM,"C[C@H]1[C@H](Oc2ccc(C(=O)C(=O)O)cc2)O[C@@H]2O[C@@]3(C)CC[C@H]4[C@H](C)CC[C@@H]1[C@@]24OO3 [Compound 129, 2-oxo-2-(4-(((3R,5aS,6R,8aS, 9R,10R,12R, 12aR)-3,6,9-trimethyldeca-hydro-12H-3,12-epoxy[1,2]dioxepino[4,3-i]isochromen-10-yl)oxy)phenyl) acetic acid]",–
160 nM,52.3 nM,"C[C@H]1[C@@H](Oc2ccc(CC(=O)NC(C)(C)C)cc2)O[C@@H]2O[C@@]3(C)CC[C@H]4[C@H](C)CC[C@@H]1[C@@]24OO3 [Compound 104, N-(tert-butyl)-2-(4-(((3R,5aS,6R,8aS, 9R,10S,12R, 12aR)-3,6,9-trimethyldeca-hydro-12H-3,12-epoxy[1,2]dioxepino[4,3-i]isochromen-10-yl)oxy)phenyl) acetamide]",–
8000 nM,24.4 nM,"C[C@H]1[C@@H](Oc2ccc(C(=O)N[C@H]3CC[C@@H](C(=O)O)C3)cc2)O[C@@H]2O[C@@]3(C)CC[C@H]4[C@H](C)CC[C@@H]1[C@@]24OO3 [Compound 134, (1R,3S)-3-(4-(((3R,5aS,6R,8aS, 9R,10S,12R, 12aR)-3,6,9-trimethyldeca-hydro-12H-3,12-epoxy[1,2]dioxepino[4,3-i]isochromen-10-yl)oxy)benzamido)cyclo-pentane-1-carboxylic acid]",–
> 20000 nM,> 20000 nM,"C[C@H]1[C@@H](CCN2CCC(C(=O)O)CC2)O[C@@H]2O[C@@]3(C)CC[C@H]4[C@H](C)CC[C@@H]1[C@@]24OO3 [Compound 66, 1-(2-((3R,5aS,6R, 8aS,9R,10R,12R, 12aR)-3,6,9-trimethyldeca-hydro-12H-3,12-epoxy[1,2]dioxepino[4,3-i]isochromen-10-yl)ethyl) piperidine-4-carboxylic acid]",–
1420 nM,88.9 nM,"C[C@H]1[C@@H](OCc2ccc(C(=O)O)nc2)O[C@@H]2O[C@@]3(C)CC[C@H]4[C@H](C)CC[C@@H]1[C@@]24OO3 [Compound 13, 5-((((3R,5aS,6R, 8aS,9R,10S,12R, 12aR)-3,6,9-trimethyldeca-hydro-12H-3,12-epoxy[1,2]dioxepino[4,3-i]isochromen-10-yl)oxy)methyl) picolinic acid]",–
> 20000 nM,16400 nM,"C[C@H]1[C@H](CCNS(C)(=O)=O)O[C@@H]2O[C@@]3(C)CC[C@H]4[C@H](C)CC[C@@H]1[C@@]24OO3 [Compound 62, N-(2-((3R,5aS,6R,8aS, 9R,10S,12R, 12aR)-3,6,9-trimethyldeca-hydro-12H-3,12-epoxy[1,2]dioxepino[4,3-i]isochromen-10-yl)ethyl) methane-sulfonamide]",–
3550 nM,2450 nM,"C[C@H]1[C@H](NC2CS(=O)(=O)C2)O[C@@H]2O[C@@]3(C)CC[C@H]4[C@H](C)CC[C@@H]1[C@@]24OO3 [Compound 52, 3-(((3R,5aS,6R,8aS, 9R,10R,12R, 12aR)-3,6,9-trimethyldeca-hydro-12H-3,12-epoxy[1,2]dioxepino[4,3-i]isochromen-10-yl)amino) thietane 1,1-dioxide]",–

Structure (SMILES),IC50 [1],EC50 [2],IC50 ([1]; HL-60 cells)
"C[C@H]1[C@@H](Oc2ccc(O[C@H]3C[C@@H](C(=O)O)C3)cc2)O[C@@H]2O[C@@]3(C)CC[C@H]4[C@H](C)CC[C@@H]1[C@@]24OO3 [Compound 182, (1R,3s)-3-(4-(((3R,5aS,6R,8aS, 9R,10S,12R, 12aR)-3,6,9-trimethyldeca-hydro-12H-3,12-epoxy[1,2]dioxepino[4,3-i]isochromen-10-yl)oxy)phenoxy) cyclobutane-1-carboxylic acid]",–,24.1 nM,1000 nM
